Laboratory results published in patent US10053443B2, “2-phenylbenzofuran derivatives, method for preparing the same and use of the same for treating inflammatory disease” (KOREA RESEARCH INSTITUTE OF BIOSCIENCE AND BIOTECHNOLOGY, priority 2014, dated 2018).

Columns and labels:
[1] = system: Raw 264.7 (ATCC TIB71) cells; experiment: Evaluation of cell survival rate of macrophages (MTT); type: cell-based, mouse; conditions: Raw 264.7, 10 μM, 24 hours
Description: Raw 264.7 (ATCC TIB71) cells, the mouse derived macrophages', were inoculated in a 96-well plate containing DMEM (Dulbecco's modified Eagle medium; Welgene, Korea) supplemented with 10% FBS (Fetal Bovine Serum), 2 mM glutamine, penicillin (100 unit/ml), and streptomycin (100 μg/ml) at the density of 1×10^4 cells/well. The cells were cultured in 5% CO2 at 37° C. for 4 hours to attach the cells onto the plate. Next, the cells were treated with each sample at different concentrations, followed by further culture for 24 hours. To investigate the cell survival rate, 5 mg/ml of MTT (3-(4,5-dimethylthiazol-2-yl)-2,5-diphenyltetrazoliumbromide, Amresco, OH, USA) was distributed thereto (10 μl/well), followed by culture for 4 hours. Then, the supernatant was eliminated. Formazan reduced from MTT by mitochondria was dissolved in 100 μl of DMSO and then OD570 was measured. 0.2% DMSO was used for the negative control.

[2] = system: Tumor Necrosis Factor Alpha (TNF-alpha); experiment: Inhibition of TNF-alpha generation in LPS-treated Raw 264.7 cells (ELISA); type: cell-based; conditions: Mus musculus, RAW264.7; Raw 264.7, LPS treated; read-out: Grades of IC50 on TNF-alpha generation
Description: Raw 264.7 cells were distributed by the same manner as described in Experimental Example <2-1>, which were treated with the samples selected due to their high NO and IL-6 suppressing effect at different concentrations. TNF-alpha included in the supernatant was measured by enzyme-linked immunosorbent assay (TNF-alpha ELISA kit, R&D Systems, MN, USA).
Particularly, 100-fold diluted supernatant was distributed in a 96-well plate on which TNF-alpha antibody was attached, followed by adhesion for 2 hours. The supernatant remaining after the adhesion was washed with a washing buffer. The detection antibody and HRP were adhered on the washed plate for 1 hour. The remaining antibody was washed. Color development was induced by using TMB substrate. The reaction was terminated with sulfuric acid solution. Then, OD450 was measured. TNF-alpha in the supernatant was quantified by using the standard curve made with the standard TNF-alpha included in the kit. TNF-alpha suppression rate was calculated by measuring the same concentration that could inhibit TNF-alpha generation up to 50% in the LPS treated group and the results are shown in Table 9.

interleukin 5 = experiment: Interleukin 5 in bronchoalveolar lavage fluid of asthma mice (ELISA); type: in vivo, mouse; conditions: OVA asthma Balb/c mice, 5 or 15 mg/kg PO, FIG. 2
Description: (§1) 6 week old Balb/c female mice in the average weight of 20 g were adapted for 1 week. 2 mg of aluminum hydroxide (A8222, Sigma, St. Louis, Mo.) and 20 μg of ovalbumin (A5503, sigma, St. Louis, Mo.) were suspended in phosphate buffer (pH 7.4). Each mouse was administered with 200 μl of the phosphate buffer suspension via intraperitoneal injection for sensitization at 2 weeks intervals. The mouse was forced to inhale 1% ovalbumin (OVA) through ultrasonic atomizer for 30 minutes a day for 3 days after the first intraperitoneal injection of ovalbumin. 24 hours after the antigen administration, airway hyperreactivity was measured. 48 hours later, a lethal dose of pentobarbital (Entobar, Hanlim Pharma. Co., Ltd.) was administered to the mouse. The bronchus was opened and the alveoli were washed with 1.4 ml of saline. Then, the test samples were obtained. The normal control (NC) was not administered with ovalbumin nor inhaled. The asthma induced group (OVA) was administered with ovalbumin and inhaled to induce bronchial asthma. […]
After performing the experiment of Experimental Example <3-1> above, Th2 cytokine (interleukin 5, 13) in bronchoalveolar was measured by sandwich type enzyme immunoassay. […] The content of each cytokine was measured using the kit according to the manufacturer's instruction.

serum IgE = experiment: Level of serum IgE in asthma mice; type: in vivo, mouse; conditions: OVA asthma Balb/c mice, 5 or 15 mg/kg PO, FIG. 4
Description: as §1, with “asthma. The comparative control was orally administered with dexamethasone (2 mg/kg, PO) one hour before the inhalation (DEX).” for “asthma.”
After performing the experiment of Experimental Example <3-1> above, the level of serum IgE relating to the severity of asthma was measured by enzyme immunoassay. […] Then, OD650 was measured.

lung tissue sections = experiment: Histopathological analysis of lung (H&E, PAS) in asthma mice; type: in vivo, mouse; conditions: OVA asthma Balb/c mice, 5 or 15 mg/kg PO
Description: as §1
To evaluate the level of mucus production by investigating the increase of the number of goblet cells, the mucus secretion cells, the lung was extracted from the mouse without bronchoalveolar lavage. […] The proliferation of goblet cells was evaluated by measuring the ratio of the goblet cells selected by the staining above in bronchial epithelial cells.

## COc1cc(CCCO)cc2cc(-c3ccc(C)cc3)oc12 [Example 4, 3-(7-methoxy-2-p-tolylbenzofuran-5-yl)propane-1-ol]
[1]
  Grades of cell survival rate (%, in 10 μM): A (A: 90<A≤100)
[2]
  IC50: 1000 to 3000 nM
Interleukin 5
  content of interleukin 5 in bronchoalveolar lavage fluid: significantly reduced
Serum IgE
  generation of serum IgE induced by OVA: efficiently reduced
Lung tissue sections; FIG. 6
  accumulation of inflammatory cells around bronchiole (H&E): significantly reduced
Lung tissue sections; FIG. 7
  proliferation of goblet cells (PAS, mucus production): significantly reduced
